Results on three molecules are retold here after patent US20160159861A1, “APJ Receptor Compounds” (priority 2013, published 2016).

Common to all, as to type: cell-based
Data set [1] addresses T1, human APJ receptor (hAPJ) (Homo sapiens, UniProt P35414).
T1 construct: expressed in transfected cells
T1 sequence (P35414 1-380): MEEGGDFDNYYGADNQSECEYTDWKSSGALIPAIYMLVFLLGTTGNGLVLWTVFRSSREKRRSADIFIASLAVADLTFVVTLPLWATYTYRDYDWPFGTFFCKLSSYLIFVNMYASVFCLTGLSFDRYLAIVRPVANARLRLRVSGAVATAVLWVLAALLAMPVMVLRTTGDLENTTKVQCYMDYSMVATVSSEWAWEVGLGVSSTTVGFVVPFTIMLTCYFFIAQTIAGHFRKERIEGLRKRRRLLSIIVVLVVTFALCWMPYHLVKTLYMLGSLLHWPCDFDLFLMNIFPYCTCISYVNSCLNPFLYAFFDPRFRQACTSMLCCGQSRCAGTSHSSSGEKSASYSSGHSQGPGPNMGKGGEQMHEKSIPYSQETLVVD
As to the kind of experiment: HTRF cAMP assay: inhibition of NKH477-stimulated cAMP in HEK cells stably expressing hAPJ. The settings on record: for Emax: HEK293, read-out: % IA, bound stated; for % IA (cAMP inhibition, hAPJ HEK): intrinsic activity; for Ranking: composite class of EC50 (hAPJ), % IA and % histamine or formal (+) charge; for inhibition of NKH477-stimulated increase in cAMP, dose dependent: concentration response curves, FIGS. 1 and 2, HEK cells stably expressing APJ. An outline of the steps: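 HEK cells stably expressing hAPJ, induced with 1 nG/mL doxycycline and seeded overnight at 40 k/well. cAMP read by HTRF competitive immunoassay using cryptate-labeled anti-cAMP antibody and d2-labeled cAMP.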
Background: In TR-FRET formats the signal depends on donor and acceptor labels being close together.

For data set [2], the target named is T2, APJ receptor (Homo sapiens, UniProt P35414).
T2 sequence (P35414 1-380): T1 sequence (P35414 1-380)
Put plainly: DiscoveRx PathHunter β-arrestin recruitment assay. The settings on record: for β-arrestin recruitment: dose dependent chemiluminescence, FIGS. 3A-3B; for Emax: read-out: β-arrestin Signaling Max Response. The source says:
Activation of the β-Arrestin signaling pathway was monitored using the commercially available DiscoveRx PathHunter® assay. This assay employs a homogenous, non-imaging assay format called Enzyme Fragment Complementation (EFC) using β-galactosidase (β-Gal) as the functional reporter. […] EA is fused to β-Arrestin and ED is fused to the GPCR of interest. When the GPCR is activated and β-Arrestin is recruited to the receptor, ED and EA complementation occurs, restoring βGal activity which is measured using chemiluminescent PathHunter® Detection Reagent.
On the technique in general: Recruitment of arrestin is a read-out of receptor activation apart from second messengers.

For data set [3], the system named is rat peritoneal cells. Put plainly: Ex vivo histamine release assay in rat peritoneal cells (vs. Compound 48/80). The method in brief:
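Resident peritoneal cells were lavaged from male Sprague Dawley rats and kept in HBSS/20 mM HEPES/0.2% BSA at 25,000 cells/well. They were exposed for 30 min at room temperature to compound at 3 points (100, 10, 1 μM DMSO stocks, 1% DMSO final). Released histamine was measured by HTRF and normalised to total histamine after Triton lysis. Compound 48/80 was the reference.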

[4] abbreviates: HTRF cAMP Assay, per data of Table 6.
Where [5] appears, read: EC50 (cAMP inhibition, hAPJ HEK), Table 6, hAPJ HEK cells, NKH477-stimulated cAMP.
[6] abbreviates: EC50 (hAPJ), inhibition of cAMP production, bound stated, HTRF cAMP Assay, per data of Table 6.
Setting [7] is: histamine release from rat peritoneal cells relative to Compound 48/80.

Where two headings read alike, the source gives them in different places. Peptide text beside a SMILES is read from it.

For orientation: EC50 means the midpoint of the concentration-response curve. In the case of `CCCCCCCCCCCCCCCC(=O)N[C@H](C(=O)N[C@H](C(=O)N[C@@H](Cc1ccccc1)C(=O)N[C@@H](CCCNC(=N)N)C(=O)N[C@@H](CO)C(=O)N[C@@H](CO)C(=O)N1CCC[C@H]1C(=O)N[C@@H](CCC(=O)O)C(=O)N[C@H](CCCCN)C(=O)N[C@@H](CCCNC(=N)N)C(=O)N[C@@H](CCCNC(=N)N)C(=O)N[C@@H](CO)C(=O)N[C@@H](C)C(=O)N[C@@H](CC(=O)O)C(=O)N[C@H](C(=O)N[C@@H](Cc1ccccc1)C(=O)N1CCC[C@H]1C(N)=O)[C@@H](C)CC)C(C)C)[C@@H](C)O` [Compound 26] (HELM PEPTIDE1{[CCCCCCCCCCCCCCCC(=O)[*:2]].T.V.F.R.S.S.P.E.[dK].R.R.S.A.D.I.F.P.[am]}$$$$V2.0), the results for the Emax in data set [1] (setting [4]) and in data set [2] were ≥ 80% and 46%, respectively. Besides, the half-maximal effective concentration (EC50) is ≤ 25 nM in data set [1] (HTRF cAMP Assay, per data of Table 6, read-out: EC50 (hAPJ), inhibition of cAMP production, bound stated); 11 nM in data set [1] (Table 6, hAPJ HEK cells, NKH477-stimulated cAMP, read-out: EC50 (cAMP inhibition, hAPJ HEK)); 59.6 nM in data set [2] (PathHunter chemiluminescence, read-out: β-arrestin Signaling EC50). Besides, the “% IA (cAMP inhibition, hAPJ HEK)” value in data set [1] (Table 6, hAPJ HEK cells) is listed as 105%. For the same molecule, in data set [1], the Ranking result is “**** (EC50≦25 nM (hAPJ), % IA≧80% and either % histamine>35% or formal (+) charge>1)”. Moreover, in data set [1], the “inhibition of NKH477-stimulated increase in cAMP, dose dependent” value is “inhibited”. For the same molecule, in data set [2], the “β-arrestin recruitment” value is “weakly engaged”. For the same molecule, the “Histamine (% vs. 48/80)” value in data set [3] is 73%.

As to `CCCCCCCCCCCCCCCC(=O)N[C@H](C(=O)N[C@H](C(=O)N[C@@H](Cc1ccccc1)C(=O)N[C@@H](CCCNC(=N)N)C(=O)N[C@@H](CO)C(=O)N[C@@H](CO)C(=O)N[C@@H](CCC(=O)O)C(=O)N1CCC[C@H]1C(=O)N[C@H](CCCCN)C(=O)N[C@@H](CCCNC(=N)N)C(=O)N[C@@H](CCCNC(=N)N)C(=O)N[C@@H](CO)C(=O)N[C@@H](C)C(=O)N[C@@H](CC(=O)O)C(=O)N[C@H](C(=O)N[C@@H](Cc1ccccc1)C(=O)N[C@H](C(N)=O)[C@@H](C)CC)[C@@H](C)CC)C(C)C)[C@@H](C)O` [Compound 27] (HELM PEPTIDE1{[CCCCCCCCCCCCCCCC(=O)[*:2]].T.V.F.R.S.S.E.P.[dK].R.R.S.A.D.I.F.I.[am]}$$$$V2.0), the half-maximal effective concentration (EC50) in data set [1] (setting [5]) came out at 7 nM. Also, the EC50 in data set [1] (setting [6]) is ≤ 25 nM. The Emax in data set [1] (setting [4]) is ≥ 80%. In addition, the “% IA (cAMP inhibition, hAPJ HEK)” value in data set [1] (Table 6, hAPJ HEK cells) worked out at 105%. In data set [1], the Ranking result was “**** (EC50≦25 nM (hAPJ), % IA≧80% and either % histamine>35% or formal (+) charge>1)”; the “inhibition of NKH477-stimulated increase in cAMP, dose dependent” value was “inhibited”. For the same molecule, in data set [2], the response was half-maximal at 8.1 nM (EC50), the “β-arrestin recruitment” value was “weakly engaged” and the Emax turned out to be 23.7%. The “Histamine (% vs. 48/80)” value in data set [3] (setting [7]) is recorded as 67%.

For `CCCCCCCCCCCCCCCC(=O)N1CCC[C@H]1C(=O)N[C@H](C(=O)N[C@H](C(=O)N[C@@H](Cc1ccccc1)C(=O)N[C@@H](CCCNC(=N)N)C(=O)N[C@@H](CO)C(=O)N1CCC[C@H]1C(=O)N[C@@H](CO)C(=O)N[C@@H](CCC(=O)O)C(=O)N[C@H](CCCCN)C(=O)N[C@@H](CCCNC(=N)N)C(=O)N[C@@H](CCCNC(=N)N)C(=O)N[C@@H](CO)C(=O)N[C@@H](C)C(=O)N[C@@H](CC(=O)O)C(=O)N[C@H](C(=O)N[C@@H](Cc1ccccc1)C(=O)N[C@H](C(N)=O)[C@@H](C)CC)[C@@H](C)CC)C(C)C)[C@@H](C)O` [Compound 3] (HELM PEPTIDE1{[CCCCCCCCCCCCCCCC(=O)[*:2]].P.T.V.F.R.S.P.S.E.[dK].R.R.S.A.D.I.F.I.[am]}$$$$V2.0), the EC50 in data set [1] (setting [5]) was 13 nM; in data set [1] (setting [6]), ≤ 25 nM; in data set [2] it was 8.2 nM. The figures for the Emax in data set [1] (setting [4]) and in data set [2] were ≥ 80% and 11%, respectively. The “% IA (cAMP inhibition, hAPJ HEK)” value in data set [1] (Table 6, hAPJ HEK cells) turned out to be 90%. For the same molecule, the Ranking entry in data set [1] was “**** (EC50≦25 nM (hAPJ), % IA≧80% and either % histamine>35% or formal (+) charge>1)”. Further, the “β-arrestin recruitment” value in data set [2] was “weakly engaged”. In data set [3] (setting [7]), the “Histamine (% vs. 48/80)” value was found to be 64%.
